Tested on: 168753-222-R-J1-PDC complex spheroid viability
Assay: Anticancer human tumor 168753-222-R-J1-PDC patient-derived bladder carcinoma cell line growth inhibition [CLK]
Conditions: for IC50: curve of first compound; for viability, T/C: stronger effect = lower value
Text: A high-throughput screen of multi-cell type tumor spheroids was designed to identify active combinations of […] and targeted small molecules. Complex spheroids include a stromal component modeled by human endothelial cells (HUVEC) and fibroblasts modeled by human mesenchymal stem cells (MSCs). The concentration ranges selected for each drug and investigational agent were based upon clinically achievable concentrations if the clinical Cmax of the agent was known.
Compounds. The drugs and investigational agents: cirtuvivint (SM08502; NSC835563), CC-671 (NSC850746), vemurafenib (NSC761431), tapotoclax (NSC804041), sotorasib (NSC818433), adagrasib (NSC831453), MRTX-1133 (NSC836407), BAY2416964 (NSC825713), copanlisib (NSC816437), inavolisib (NSC800729), abemaciclib (NSC768073), osimertinib (NSC779217), entinostat (NSC756642), eltanexor (KPT-8602, NSC794443), venetoclax (NSC766270), ceralasertib (NSC777638), bortezomib (NSC756655), olaparib (NSC753686), talazoparib (NSC767125), alisertib (NSC759677), peposertib (NSC802822), gemcitabine (NSC613327), 5-fluorouracil (NSC19893), SN-38 (NSC673596), oxaliplatin (NSC266046), paclitaxel (NSC125973), and doxorubicin (NSC123127), were obtained from the National Cancer Institute (NCI) Developmental Therapeutics Program Chemical Repository. The FDA-approved anticancer drug set is available from the Developmental Therapeutics Program at https://dtp.cancer.gov/organization/dscb/obtaining/available plates.htm. […] The stock solutions were prepared in dimethyl sulfoxide (DMSO, Sigma-Aldrich, St. Louis, MO, cat. D2650), except for the platinum complexes which were prepared in saline (Quality Biological, Gaithersburg, MD, cat. 114-055-101), at 800-fold the tested concentration and stored at -70 degrees C prior to their use. All drugs and investigational agents were tested over a range starting from a high concentration at or near the clinical Cmax and decreasing in half-log increments. If the clinical Cmax for an agent had not been determined, the highest concentration tested was 10 microM.
Cell Culture. All cells were maintained in an incubator at 37 degrees C and 5% CO2 with 95% humidity. The PDC lines were cultured according to standard operating procedures established by the NCI PDMR. Briefly, all PDCs were thawed and cultured in Matrigel-coated flasks prepared with a working solution of 1X Ham's F-12 nutrient mix, without supplementation (Invitrogen, Waltham, MA, cat. 11765054), 100 U/mL penicillin-streptomycin (Invitrogen, cat. 15140122), and 2.5% Matrigel (Corning Inc., Corning, NY, cat. 354248) for the first three passages. The 947758-054-R-J2-PDC line was cultured in 6B/Colon 1A media, which includes advanced DMEM/F-12 (Thermo Fisher Scientific, cat. 12634028), 10 mM HEPES (Thermo Fisher Scientific, cat. 15630080), 1X GlutaMAX supplement (Thermo Fisher Scientific, cat. 35050061), 0.1 mg/mL primocin (InvivoGen, cat. ant-pm-2), 10% defined fetal bovine serum, heat inactivated (HyClone Laboratories Inc., cat. SH30070.03HI), 1.25 mM N-Acetyl-L-cysteine (Sigma-Aldrich, cat. A9165), 10 mM nicotinamide (Sigma-Aldrich, cat. N0636), 1X B-27 supplement (Thermo Fisher Scientific, cat. 17504044), 1X N-2 supplement (Thermo Fisher Scientific, cat. 17502048), and 10 microM Y-27632 dihydrochloride (Tocris Bioscience, cat. 1254). The 876862-298-R-J1-PDC was cultured in 6E media, which includes all 6B/Colon 1A media components plus 50% L-WRN conditioned media (ATCC, cat. CRL-3276), 50 ng/mL recombinant human EGF recombinant protein (hEGF; Thermo Fisher Scientific, cat. PHG0311), 10 ng/mL recombinant human fibroblast growth factor 10 (hGFG-10; PeproTech, cat. 100-26), 1 ng/mL recombinant human fibroblast growth factor 2 (hFGF-2; PeproTech, cat. 100-18B), and 1 µM prostaglandin E2 (PGE2; Tocris, cat. 2296). The 227483-062-R1-J1-PDC line was cultured in Panc media, containing all 6E components except hFGF-2, with the addition of 500 nM SB-431542 (Selleckchem, cat. S1067) and 10 nM gastrin (Tocris, cat. 3006). […]
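Further: viability measured after seven days of drug exposure.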
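Wherever viability, T/C is given: luminescence signal used as surrogate for viable cell amount; 100% = DMSO vehicle control wells.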

- IC50 (second compound 0.0316 µM): > 10 µM
- IC50 (second compound 0.1 µM): > 10 µM
- IC50 (second compound 0.316 µM): 9.85 µM
- IC50 (second compound 1 µM): 3.86 µM
- IC50 (second compound 3.16 µM): < 0.0316 µM
- IC50 (second compound 10 µM): < 0.0316 µM
Compound: CCCS(=O)(=O)Nc1ccc(F)c(C(=O)c2c[nH]c3ncc(-c4ccc(Cl)cc4)cc23)c1F + CNC(=O)c1ccc(Nc2nc(OC3CCCC3)c3c(-c4ccc5nc(C)oc5c4)c[nH]c3n2)c(OC)c1
- viability, T/C (second compound 0.0316 µM, first compound 0.0316 µM): 109%
- viability, T/C (second compound 0.0316 µM, first compound 0.1 µM): 105%
- viability, T/C (second compound 0.0316 µM, first compound 0.316 µM): 113%
- viability, T/C (second compound 0.0316 µM, first compound 1 µM): 116%
- viability, T/C (second compound 0.0316 µM, first compound 3.16 µM): 105%
- viability, T/C (second compound 0.0316 µM, first compound 10 µM): 68.1%
- viability, T/C (second compound 0.1 µM, first compound 0.0316 µM): 91.6%
- viability, T/C (second compound 0.1 µM, first compound 0.1 µM): 103%
- viability, T/C (second compound 0.1 µM, first compound 0.316 µM): 105%
- viability, T/C (second compound 0.1 µM, first compound 1 µM): 106%
- viability, T/C (second compound 0.1 µM, first compound 3.16 µM): 103%
- viability, T/C (second compound 0.1 µM, first compound 10 µM): 66.2%
- viability, T/C (second compound 0.316 µM, first compound 0.0316 µM): 92.3%
- viability, T/C (second compound 0.316 µM, first compound 0.1 µM): 98.7%
- viability, T/C (second compound 0.316 µM, first compound 0.316 µM): 93.1%
- viability, T/C (second compound 0.316 µM, first compound 1 µM): 104%
- viability, T/C (second compound 0.316 µM, first compound 3.16 µM): 101%
- viability, T/C (second compound 0.316 µM, first compound 10 µM): 49.3%
- viability, T/C (second compound 1 µM, first compound 0.0316 µM): 53.7%
- viability, T/C (second compound 1 µM, first compound 0.1 µM): 50.7%
- viability, T/C (second compound 1 µM, first compound 0.316 µM): 46.9%
- viability, T/C (second compound 1 µM, first compound 1 µM): 57.2%
- viability, T/C (second compound 1 µM, first compound 3.16 µM): 64%
- viability, T/C (second compound 1 µM, first compound 10 µM): 28.6%
- viability, T/C (second compound 3.16 µM, first compound 0.0316 µM): 25.1%
- viability, T/C (second compound 3.16 µM, first compound 0.1 µM): 33.7%
- viability, T/C (second compound 3.16 µM, first compound 0.316 µM): 34.4%
- viability, T/C (second compound 3.16 µM, first compound 1 µM): 30.1%
- viability, T/C (second compound 3.16 µM, first compound 3.16 µM): 29.6%
- viability, T/C (second compound 3.16 µM, first compound 10 µM): 26.1%
- viability, T/C (second compound 10 µM, first compound 0.0316 µM): 20%
- viability, T/C (second compound 10 µM, first compound 0.1 µM): 31.2%
- viability, T/C (second compound 10 µM, first compound 0.316 µM): 29.7%
- viability, T/C (second compound 10 µM, first compound 1 µM): 20.1%
- viability, T/C (second compound 10 µM, first compound 3.16 µM): 27.8%
- viability, T/C (second compound 10 µM, first compound 10 µM): 24%

From PubChem BioAssay AID2060626 (Molecular Pharmacology Branch, DTP, NCI, 2025)
